Experimental data reported in patent US20190000908A1, “COMPOSITIONS AND METHODS FOR TREATING AND/OR PREVENTING A URINARY TRACT INFECTION” (priority 2017, published 2019).

Legend:
Assay type in all cases: cell-based
[1] = system: E. coli strains (NCTC 4169 and NCTC 9775); experiment: Human Red Blood Cell (HRBC) agglutination assay, strain not specified for the result; conditions: human RBC + E. coli; strain not stated
Protocol: (§1) A whole blood (type 0 positive) was acquired from a volunteer and stored with EDTA at 4° C. Before the agglutination experiment, the red blood cells were isolated by centrifugation at 800 rpm for 15 minutes (in order to remove the platelets and plasma). The resulting red blood cells were suspended in phosphate buffered (PBS, pH 7.4) and washed three times to remove EDTA and other blood components, after each wash the supernatant was removed and the remaining cells were resuspended in PBS. Finally, RBC were diluted in 10 ml of PBS to create 1% RBC suspension that was stored at 4° C. until use.
(§2) Standard E. coli strains (NCTC 4169 and NCTC 9775) were grown on TSA plates for 24 h at 37° C. Colony was collected with sterile culturing needle and cells suspended in PBS and washed three times with PBS, after each wash the supernatant was removed. The cells were resuspended in PBS at final concentration of 10^9 cells/ml and stored at 4° C. for an hour.
(§3) The experiments were conducted in round bottom 96-well plate, with final volume 200 μl, made of 98 μl of the 1% RBC suspension, 2 μl extract (or PBS) and 100 μl bacterial suspension or PBS (as control). Extract were prepared in advance at different concentrations in PBS (10 mg/ml, 3 mg/ml, 1 mg/ml, 50 μg/ml and 1 μg/ml). […]

[2] = system: E. coli NCTC 4169; experiment: Human Red Blood Cell (HRBC) agglutination assay, E. coli NCTC 4169; conditions: strain 4169, FIG. 1 Raw C
Protocol: as §1, §2, §3

[3] = system: E. coli NCTC 9775; experiment: Human Red Blood Cell (HRBC) agglutination assay, E. coli NCTC 9775; conditions: strain 9775, FIG. 1 Raw C
Protocol: as §1, §2, §3

For `O=C[C@@H](O)[C@@H](O)[C@H](O)[C@H](O)CO` [D-mannose, D-Mannose], the “concentration that induced agglutination prevention/inhibition” value [1] was 5 to 10 mg/mL, the “D-mannose sensitivity of bacteria-induced RBC agglutination” value [2] was “not D-mannose sensitive” and the “D-mannose sensitivity of bacteria-induced RBC agglutination” value [3] was “D-mannose sensitive”.
